For data set [1], the target named is T1, Ba/F3-FL-TYK2-P760L cells (Homo sapiens, UniProt P29597, P760L, cells depend on it).
T1 construct: BaF3-FL-T2P760L (nM)
In words: Anti-proliferative assay, Ba/F3-FL-TYK2-P760L cells (Cell-Titer Glo). The format is cell-based. The note with it: 72 h, read-out: BaF3-FL-T2P760L IC50. The method, boiled down: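 Ba/F3 cells made IL-3-independent by TEL-fused or full-length mutant JAK-family kinases, seeded at 2000/well and dosed after 24 h with 9 three-fold dilutions topping at 20 μM. Viability after 72 h at 37 °C, 5% CO2 by Cell-Titer Glo ATP luminescence.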

Data set [2] can be described thus: Microsomal metabolic stability assay. To be noted: pH 7.4, 0.5 mg/mL protein, 1 μM compound. The format is in vitro ADME. How it is done: Microsomal Metabolic Stability Assay
Microsomes were pre-incubated with test compound or control compounds for 5 min at 37° C. in 100 mM potassium phosphate buffer, pH 7.4, 1.0 mM EDTA. The reaction was initiated by addition of 15 μL of the NADPH regenerating system to 30 μL of each incubation mixture per time point. The final incubation condition was composed of 0.5 mg/mL microsomal protein, 1 μM test article/positive control, 2 mM NADPH. The 0-minute samples were prepared by addition of a 30 μL aliquot of each incubation mixture to 135 μL quench reagent to precipitate proteins. And then a 15 μL aliquot of the NADPH regenerating system was added. At 5, 15, 30 and 45 minutes, the reaction will be stopped by the addition of cold acetonitrile solution containing internal standard. The samples taken at all time points were centrifuged at 5000×g for 15 minutes. 50 μL of supernatant are taken into 96-well assay plates pre-added with 50 μL ultrapure water, and then analyzed by LC/MS/MS.
Concentrations of test articles, control compounds in the samples were determined by using LC/MS/MS method. Plotting of the chromatograms and peak area integrations are carried out by Analyst (AB Sciex).
n the determination of the in vitro elimination constant (ke) of the control compounds, the analyte/internal standard peak area ratios will be converted to percentage remaining (% Remaining) with the following equation: […]
The slope was measured by the natural logarithm of the percentage of the residual compound and time, T1/2 was calculated according to the following formula.

The mark [3] stands for this setting: dog liver microsomes, read-out: Dog LM Clint.
Setting [4] is: dog liver microsomes, read-out: Dog LM T½.
Where [5] appears, read: human liver microsomes, read-out: Human LM Clint.
Where [6] appears, read: human liver microsomes, read-out: Human LM T½.
Setting [7] is: rat liver microsomes, read-out: Rat LM Clint.
[8] abbreviates: rat liver microsomes, read-out: Rat LM T½.

Each structure is given as a SMILES string. Read-outs that look alike come from different tables or passages of the source.

T1 sequence (P29597 whole entry P760L): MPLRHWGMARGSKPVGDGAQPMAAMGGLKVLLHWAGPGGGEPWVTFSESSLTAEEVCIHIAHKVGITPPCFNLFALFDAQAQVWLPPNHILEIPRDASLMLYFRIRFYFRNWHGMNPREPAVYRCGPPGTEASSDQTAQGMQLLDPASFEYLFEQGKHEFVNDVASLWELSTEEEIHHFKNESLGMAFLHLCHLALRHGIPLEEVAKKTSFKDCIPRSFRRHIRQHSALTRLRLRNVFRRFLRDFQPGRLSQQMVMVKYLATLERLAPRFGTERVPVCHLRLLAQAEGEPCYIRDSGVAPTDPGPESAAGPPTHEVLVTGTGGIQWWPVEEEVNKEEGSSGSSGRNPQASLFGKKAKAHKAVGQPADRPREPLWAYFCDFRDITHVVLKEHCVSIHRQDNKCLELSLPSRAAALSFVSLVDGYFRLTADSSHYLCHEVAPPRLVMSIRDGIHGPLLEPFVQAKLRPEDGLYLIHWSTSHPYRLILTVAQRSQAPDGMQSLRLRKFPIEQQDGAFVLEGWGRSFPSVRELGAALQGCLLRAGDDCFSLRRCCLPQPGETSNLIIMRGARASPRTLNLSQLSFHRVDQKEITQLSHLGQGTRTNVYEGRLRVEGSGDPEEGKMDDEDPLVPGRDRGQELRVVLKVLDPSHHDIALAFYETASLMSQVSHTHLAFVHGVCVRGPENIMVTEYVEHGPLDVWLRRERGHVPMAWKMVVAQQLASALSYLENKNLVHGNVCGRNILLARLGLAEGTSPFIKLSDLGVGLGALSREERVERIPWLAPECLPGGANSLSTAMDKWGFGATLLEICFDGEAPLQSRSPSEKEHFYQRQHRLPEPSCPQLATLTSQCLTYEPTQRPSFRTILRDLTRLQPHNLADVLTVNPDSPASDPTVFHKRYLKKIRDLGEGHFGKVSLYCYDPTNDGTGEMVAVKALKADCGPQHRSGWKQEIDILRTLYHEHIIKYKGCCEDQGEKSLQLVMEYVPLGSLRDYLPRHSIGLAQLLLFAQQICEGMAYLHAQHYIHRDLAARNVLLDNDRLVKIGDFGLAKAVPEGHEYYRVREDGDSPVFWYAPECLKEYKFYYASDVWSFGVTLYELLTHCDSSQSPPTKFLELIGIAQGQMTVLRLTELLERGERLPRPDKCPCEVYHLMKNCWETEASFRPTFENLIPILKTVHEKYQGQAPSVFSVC

Take `[2H]C([2H])([2H])NC(=O)c1cnc2nc1Nc1cc(cc(-c3ncn(C)n3)c1OC)COCc1cc(cc(F)c1F)N2` [Example 78, 18,19-Difluoro-10-methoxy-N-(methyl-d3)-11-(1-methyl-1H-1,2,4-triazol-3-yl)-15-oxa-2,4,8,23-tetraazatetracyclo[15.3.1.1^{3,7}.1^{9,13}]tricosa-1(20),3,5,7(23),9(22),10,12,17(21),18-nonaene-6-carboxamide]: the GI50 in data set [1] was found to be 46.5 nM. The microsomal CLint at 1 μM in data set [2] (setting [3]) was determined as 8.5 µL/min/mg; in data set [2] (setting [5]) it was 22 µL/min/mg; in data set [2] (setting [7]), 21.4 µL/min/mg. Further, the half-life at 1 μM in data set [2] (setting [4]) worked out at 163 min; in data set [2] (setting [6]) it was 63 min; in data set [2] (setting [8]), 64.7 min.
Turning to `[2H]C([2H])([2H])NC(=O)c1cnc2nc1Nc1cc(cc(-c3ncn(C)n3)c1OC)COCc1cc(F)cc(c1)N2` [Example 79, 19-Fluoro-10-methoxy-N-(methyl-d3)-11-(1-methyl-1H-1,2,4-triazol-3-yl)-15-oxa-2,4,8,23-tetraazatetracyclo[15.3.1.1^{3,7}.1^{9,13}]tricosa-1(21),3,5,7(23),9(22),10,12,17,19-nonaene-6-carboxamide], the GI50 in data set [1] was 40.3 nM. The microsomal CLint at 1 μM in data set [2] (setting [3]) is 8.97 µL/min/mg; in data set [2] (setting [5]), 27.8 µL/min/mg; in data set [2] (setting [7]), 26.2 µL/min/mg. Moreover, the half-life at 1 μM in data set [2] (setting [4]) worked out at 155 min; in data set [2] (setting [6]), 50 min; in data set [2] (setting [8]), 52.9 min.
For `[2H]C([2H])([2H])NC(=O)c1nnc2cc1Nc1cc(cc(-c3ncn(C4CC4)n3)c1OC)COCc1nc(ccc1F)N2` [Example 82, 11-(1-Cyclopropyl-1H-1,2,4-triazol-3-yl)-18-fluoro-10-methoxy-N-(methyl-d3)-15-oxa-2,4,5,8,21-pentaazatetracyclo[15.3.1.1^{3,7}.1^{9,13}]tricosa-1(20),3,5,7(23),9(22),10,12,17(21),18-nonaene-6-carboxamide], the GI50 in data set [1] was determined as 64.3 nM. In addition, the values for the microsomal CLint at 1 μM in data set [2] (setting [3]), in data set [2] (setting [5]) and in data set [2] (setting [7]) were 17.8 µL/min/mg, less than 11.5 µL/min/mg and 20.1 µL/min/mg, respectively. Besides, the half-life at 1 μM in data set [2] (setting [4]) was 78 min; in data set [2] (setting [6]), more than 120 min; in data set [2] (setting [8]) it was 69 min.
On to `[2H]C([2H])([2H])NC(=O)c1cnc2cc1Nc1cc(cc(-c3ncc(F)cn3)c1OC)COCc1nc(ccc1F)N2` [Example 86, 18-Fluoro-11-(5-fluoropyrimidin-2-yl)-10-methoxy-N-(methyl-d3)-15-oxa-2,4,8,21-tetraazatetracyclo[15.3.1.1^{3,7}.1^{9,13}]tricosa-1(20),3,5,7(23),9(22),10,12,17(21),18-nonaene-6-carboxamide], for which the GI50 in data set [1] is 139 nM. Also, the values for the microsomal CLint at 1 μM in data set [2] (setting [3]), in data set [2] (setting [5]) and in data set [2] (setting [7]) were 20 µL/min/mg, less than 11.5 µL/min/mg and less than 11.5 µL/min/mg, respectively. In addition, the half-life at 1 μM in data set [2] (setting [4]) is 69.4 min; in data set [2] (setting [6]) it was more than 120 min; in data set [2] (setting [8]), more than 120 min.
Take `[2H]C([2H])([2H])NC(=O)c1cnc2cc1Nc1cc(cc(-c3ncc(OC)cn3)c1OC)COCc1nc(ccc1F)N2` [Example 95, 18-Fluoro-10-methoxy-11-(5-methoxypyrimidin-2-yl)-N-(methyl-d3)-15-oxa-2,4,8,21-tetraazatetracyclo[15.3.1.1^{3,7}.1^{9,13}]tricosa-1(20),3,5,7(23),9(22),10,12,17(21),18-nonaene-6-carboxamide]: in data set [1], the GI50 came to 53.1 nM. For the same compound, the microsomal CLint at 1 μM in data set [2] (setting [3]), in data set [2] (setting [5]) and in data set [2] (setting [7]) was less than 11.5 µL/min/mg in each case. The half-life at 1 μM in data set [2] (setting [4]), in data set [2] (setting [6]) and in data set [2] (setting [8]) was more than 120 min throughout.
For the compound `CCn1ccc2c(c(Nc3cc(Nc4ncc(F)cc4F)ncc3C(=O)NC)cn2C)c1=O` [Example 98, 6-((3,5-Difluoropyridin-2-yl)amino)-4-((5-ethyl-1-methyl-4-oxo-4,5-dihydro-1H-pyrrolo[3,2-c]pyridin-3-yl)amino)-N-methylnicotinamide], in data set [1], the GI50 was 488 nM. Further, the microsomal CLint at 1 μM turned out to be 37.3 µL/min/mg in data set [2] (setting [3]), 32.6 µL/min/mg in data set [2] (setting [5]) and 114 µL/min/mg in data set [2] (setting [7]). For the same compound, the half-life at 1 μM in data set [2] (setting [4]) was 37.2 min; in data set [2] (setting [6]) it was 42.5 min; in data set [2] (setting [8]) it was 12.1 min.
Regarding `[2H]C([2H])([2H])NC(=O)c1cnc(Nc2ccc(F)cn2)cc1Nc1cn(C)c2ccn(CC)c(=O)c12` [Example 99, 4-[(5-Ethyl-1-methyl-4-oxo-pyrrolo[3,2-c]pyridin-3-yl)amino]-6-[(5-fluoro-2-pyridyl)amino]-N-(methyl-d3)pyridine-3-carboxamide], the GI50 in data set [1] was found to be 56.7 nM. The microsomal CLint at 1 μM in data set [2] (setting [3]) was determined as 33.1 µL/min/mg; in data set [2] (setting [5]), 89.9 µL/min/mg; in data set [2] (setting [7]), 181 µL/min/mg. Also, the half-life at 1 μM stood at 105 min in data set [2] (setting [4]), 38.5 min in data set [2] (setting [6]) and 19.1 min in data set [2] (setting [8]).
Consider `[2H]C([2H])([2H])NC(=O)c1cnc(Nc2cc(F)c(F)cn2)cc1Nc1cn(C)c2c(F)cn(C)c(=O)c12` [Example 121, 6-((4,5-Difluoropyridin-2-yl)amino)-4-((7-fluoro-1,5-dimethyl-4-oxo-4,5-dihydro-1H-pyrrolo[3,2-c]pyridin-3-yl)amino)-N-(methyl-d3)nicotinamide], for which the GI50 in data set [1] turned out to be 42.2 nM. Further, the values for the microsomal CLint at 1 μM in data set [2] (setting [3]), in data set [2] (setting [5]) and in data set [2] (setting [7]) were 19.9 µL/min/mg, 135 µL/min/mg and 115 µL/min/mg, respectively. For the same compound, the half-life at 1 μM stood at 69.6 min in data set [2] (setting [4]), 10.2 min in data set [2] (setting [6]) and 12.1 min in data set [2] (setting [8]).
On to `[2H]C([2H])([2H])NC(=O)c1cnc(NC(=O)C2CC2)cc1Nc1cn(C)c2c(F)cn(CC(F)(F)F)c(=O)c12` [Example 123, 6-(Cyclopropanecarboxamido)-4-((7-fluoro-1-methyl-4-oxo-5-(2,2,2-trifluoroethyl)-4,5-dihydro-1H-pyrrolo[3,2-c]pyridin-3-yl)amino)-N-(methyl-d3)nicotinamide], for which, in data set [1], the GI50 is 100 nM. Further, the values for the microsomal CLint at 1 μM in data set [2] (setting [3]), in data set [2] (setting [5]) and in data set [2] (setting [7]) were 18.7 µL/min/mg, 53 µL/min/mg and 55.6 µL/min/mg, respectively. Also, the half-life at 1 μM in data set [2] (setting [4]) stood at 84.8 min; in data set [2] (setting [6]) it was 26.2 min; in data set [2] (setting [8]), 25 min.
Turning to `[2H]C([2H])([2H])NC(=O)c1cnc(Nc2ccc(F)cn2)cc1Nc1ccc2cnn(C([2H])([2H])[2H])c2c1OC` [Example 141, 6-((5-Fluoropyridin-2-yl)amino)-4-((7-methoxy-1-(methyl-d3)-1H-indazol-6-yl)amino)-N-(methyl-d3)nicotinamide], the GI50 in data set [1] is 29.1 nM. Further, the microsomal CLint at 1 μM in data set [2] (setting [3]) is 93.8 µL/min/mg; in data set [2] (setting [5]), 76 µL/min/mg; in data set [2] (setting [7]), 46.8 µL/min/mg. Besides, the half-life at 1 μM in data set [2] (setting [4]) came out at 14.8 min; in data set [2] (setting [6]) it was 18.2 min; in data set [2] (setting [8]) it was 29.6 min.
`[2H]C([2H])([2H])NC(=O)c1cnc(NC(=O)C2CC2)cc1Nc1cc(F)c2cnn(CC)c2c1OC` [Example 147, 6-(Cyclopropanecarboxamido)-4-((1-ethyl-4-fluoro-7-methoxy-1H-indazol-6-yl)amino)-N-(methyl-d3)nicotinamide]: the GI50 in data set [1] was found to be 175 nM. In addition, the microsomal CLint at 1 μM in data set [2] (setting [3]) amounted to 54.4 µL/min/mg; in data set [2] (setting [5]), 59 µL/min/mg; in data set [2] (setting [7]), 124 µL/min/mg. Further, the results for the half-life at 1 μM in data set [2] (setting [4]), in data set [2] (setting [6]) and in data set [2] (setting [8]) were 25.5 min, 23.5 min and 11.1 min, respectively.
As for `[2H]C([2H])([2H])NC(=O)c1cnc(Nc2cccc(F)n2)cc1Nc1cn(C)c2c(Cl)cn(CC)c(=O)c12` [Example 161, 4-((7-Chloro-5-ethyl-1-methyl-4-oxo-4,5-dihydro-1H-pyrrolo[3,2-c]pyridin-3-yl)amino)-6-((6-fluoropyridin-2-yl)amino)-N-(methyl-d3)nicotinamide], the GI50 in data set [1] came to 21.6 nM. In addition, the microsomal CLint at 1 μM in data set [2] (setting [3]) was 27.2 µL/min/mg; in data set [2] (setting [5]) it was 74.6 µL/min/mg; in data set [2] (setting [7]), 63.5 µL/min/mg. Moreover, the results for the half-life at 1 μM in data set [2] (setting [4]), in data set [2] (setting [6]) and in data set [2] (setting [8]) were 51 min, 18.6 min and 21.8 min, respectively.

These data come from US20250115597A1, “TYK2 INHIBITORS AND COMPOSITIONS AND METHODS THEREOF” (LYNK PHARMACEUTICALS CO. LTD., priority 2021, published 2025).
